Experimental findings from patent US9474790B2, “Stable, protracted GLP-1/glucagon receptor co-agonists for medical use” (Novo Nordisk A/S, priority 2013, dated 2016) are described below.

Molecules are shown by their SMILES. Numbered stars: 1 amine (or outer) side, 2 acyl side, 3 side chain; on linkers, the order of the positions; unused ones are H or OH. Bridge positions count the residues as written; N and C are the ends. Square brackets hold non-standard residues; d marks the D form. Side chains are listed from the residue outwards. Peptide text beside a SMILES is read from it. I, II: the chains in the order shown. * marks the point of attachment. C18 diacid = O=C(O)CCCCCCCCCCCCCCCCC(=O)*; γGlu = O=C(O)[C@H](CCC(=O)[*:2])N[*:1]; Ac4c = NC1(C(=O)O)CCC1; AEEA = NCCOCCOCC(=O)O; Aib = CC(C)(N)C(=O)O

In the test the target is T1, human GLP-1 receptor (Homo sapiens, UniProt P43220).
T1 construct: expressed in transfected cells; host or cells: BHK cells (parent BHKTS13), clone FCW467-12A/KZ10-1, with CRE luciferase
The test is described as follows: GLP-1 receptor potency, CRE luciferase reporter gene assay in BHK cells. It counts as cell-based. The following applies: BHK cells expressing human GLP-1 receptor, read-out: EC50 GLP-1R. The gist of the method: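 Potency as cAMP-driven firefly luciferase signal after 3 h, 37° C exposure to 10-fold dilutions (final 1×10EE-13–1×10EE-6 M). Stable hGLP-1R/CRE-luc BHK clone, 5×10EE3 cells/well, medium containing 2% ovalbumin and 0.2% Pluronic F-68; EC50 (pM) from variable-slope non-linear regression.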
A general note: Reporter assays use an easily measured gene product as a stand-in for the process of interest.

T1 sequence (P43220 24-463): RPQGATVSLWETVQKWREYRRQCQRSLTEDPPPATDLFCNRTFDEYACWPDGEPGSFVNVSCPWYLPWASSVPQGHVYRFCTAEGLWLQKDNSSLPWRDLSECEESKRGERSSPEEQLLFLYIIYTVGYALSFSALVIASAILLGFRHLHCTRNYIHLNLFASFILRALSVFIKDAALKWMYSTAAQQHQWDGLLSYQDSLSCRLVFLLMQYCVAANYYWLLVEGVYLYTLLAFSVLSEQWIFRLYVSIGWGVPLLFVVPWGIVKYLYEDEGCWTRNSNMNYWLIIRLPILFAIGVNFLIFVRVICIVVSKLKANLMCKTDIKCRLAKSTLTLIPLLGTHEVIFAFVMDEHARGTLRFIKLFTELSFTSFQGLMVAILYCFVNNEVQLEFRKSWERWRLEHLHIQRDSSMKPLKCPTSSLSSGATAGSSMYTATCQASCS

For orientation: EC50 means the midpoint of the concentration-response curve. As for `CC(C)C[C@H](NC(=O)[C@H](CC(C)C)NC(=O)[C@H](Cc1c[nH]c2ccccc12)NC(=O)[C@H](CCC(N)=O)NC(=O)[C@@H](NC(=O)[C@H](Cc1ccccc1)NC(=O)[C@H](CCC(=O)O)NC(=O)[C@H](CCCNC(=N)N)NC(=O)[C@H](C)NC(=O)[C@H](CCCNC(=N)N)NC(=O)[C@H](CCCNC(=N)N)NC(=O)[C@H](CO)NC(=O)[C@H](CC(=O)O)NC(=O)[C@H](CC(C)C)NC(=O)[C@H](Cc1ccc(O)cc1)NC(=O)[C@H](CCCCN)NC(=O)[C@H](CO)NC(=O)[C@H](CC(C)C)NC(=O)[C@H](CC(=O)O)NC(=O)[C@H](CO)NC(=O)[C@@H](NC(=O)[C@H](Cc1ccccc1)NC(=O)[C@@H](NC(=O)CNC(=O)[C@H](CCC(N)=O)NC(=O)C(C)(C)NC(=O)[C@@H](N)Cc1c[nH]cn1)[C@@H](C)O)[C@@H](C)O)C(C)C)C(=O)N[C@@H](CC(N)=O)C(=O)N[C@@H](CCCCNC(=O)CC[C@H](NC(=O)CC[C@H](NC(=O)COCCOCCNC(=O)COCCOCCNC(=O)CC[C@H](NC(=O)CCCCCCCCCCCCCCCCC(=O)O)C(=O)O)C(=O)O)C(=O)O)C(N)=O` [Example 12, N^ε29-[(4S)-4-carboxy-4-[[(4S)-4-carboxy-4-[[2-[2-[2-[[2-[2-[2-[[(4S)-4-carboxy-4-(17-carboxyheptadecanoylamino)butanoyl]amino]ethoxy]ethoxy]acetyl]amino]ethoxy]ethoxy]acetyl]amino]butanoyl]amino]butanoyl]-[Aib2,Leu10,Arg20,Glu21,Leu27,Lys29]-Glucagon amide] (H-H[Aib]QGTFTSDLSKYLDSRRAREFVQWLLNK([γGlu-γGlu-AEEA-AEEA-γGlu-C18 diacid])-NH2), the EC50 came out at 14.7 pM.
As to `CC(C)C[C@H](NC(=O)[C@H](CC(C)C)NC(=O)[C@H](Cc1c[nH]c2ccccc12)NC(=O)[C@H](CCC(N)=O)NC(=O)[C@@H](NC(=O)[C@H](Cc1ccccc1)NC(=O)[C@H](CCC(=O)O)NC(=O)[C@H](CCCNC(=N)N)NC(=O)[C@H](C)NC(=O)[C@H](CCCNC(=N)N)NC(=O)[C@H](CCCNC(=N)N)NC(=O)[C@H](CO)NC(=O)[C@H](CCC(=O)O)NC(=O)[C@H](CC(C)C)NC(=O)[C@H](Cc1ccc(O)cc1)NC(=O)[C@H](CCCCN)NC(=O)[C@H](CO)NC(=O)[C@H](CC(C)C)NC(=O)[C@H](CC(=O)O)NC(=O)[C@H](CO)NC(=O)[C@@H](NC(=O)[C@H](Cc1ccccc1)NC(=O)[C@@H](NC(=O)CNC(=O)[C@H](CCC(N)=O)NC(=O)C(C)(C)NC(=O)[C@@H](N)Cc1c[nH]cn1)[C@@H](C)O)[C@@H](C)O)C(C)C)C(=O)N[C@@H](CC(N)=O)C(=O)N[C@@H](CCCCNC(=O)CC[C@H](NC(=O)COCCOCCNC(=O)COCCOCCNC(=O)CC[C@H](NC(=O)CC[C@H](NC(=O)CCCCCCCCCCCCCCCCC(=O)O)C(=O)O)C(=O)O)C(=O)O)C(N)=O` [Example 21, N^ε29-[(4S)-4-carboxy-4-[[2-[2-[2-[[2-[2-[2-[[(4S)-4-carboxy-4-[[(4S)-4-carboxy-4-(17-carboxyheptadecanoylamino)butanoyl]amino]butanoyl]amino]ethoxy]ethoxy]acetyl]amino]ethoxy]ethoxy]acetyl]amino]butanoyl]-[Aib2,Leu10,Glu15,Arg20,Glu21,Leu27,Lys29]-Glucagon amide] (H-H[Aib]QGTFTSDLSKYLESRRAREFVQWLLNK([γGlu-AEEA-AEEA-γGlu-γGlu-C18 diacid])-NH2; N-terminus assumed), the EC50 is 2.7 pM.
`CC(C)C[C@H](NC(=O)[C@H](Cc1ccc(O)cc1)NC(=O)[C@H](CCCCN)NC(=O)[C@H](CO)NC(=O)[C@H](CC(C)C)NC(=O)[C@H](CC(=O)O)NC(=O)[C@H](CO)NC(=O)[C@@H](NC(=O)[C@H](Cc1ccccc1)NC(=O)[C@@H](NC(=O)CNC(=O)[C@H](CCC(N)=O)NC(=O)C(C)(C)NC(=O)[C@@H](N)Cc1c[nH]cn1)[C@@H](C)O)[C@@H](C)O)C(=O)N[C@@H](CCC(=O)O)C(=O)N[C@@H](CO)C(=O)N[C@@H](CCCNC(=N)N)C(=O)N[C@@H](CCCNC(=N)N)C(=O)N[C@@H](C)C(=O)N[C@@H](CCCNC(=N)N)C(=O)N[C@@H](CCC(=O)O)C(=O)N[C@@H](Cc1ccccc1)C(=O)N[C@H](C(=O)N[C@@H](CCC(N)=O)C(=O)N[C@@H](Cc1c[nH]c2ccccc12)C(=O)N[C@@H](CC(C)C)C(=O)N[C@@H](CC(C)C)C(=O)N[C@@H](CCCCNC(=O)CC[C@H](NC(=O)CC[C@H](NC(=O)COCCOCCNC(=O)COCCOCCNC(=O)CC[C@H](NC(=O)CCCCCCCCCCCCCCCCC(=O)O)C(=O)O)C(=O)O)C(=O)O)C(=O)N[C@H](C(N)=O)[C@@H](C)O)C(C)C` [Example 23, N^ε28-[(4S)-4-carboxy-4-[[(4S)-4-carboxy-4-[[2-[2-[2-[[2-[2-[2-[[(4S)-4-carboxy-4-(17-carboxyheptadecanoylamino)butanoyl]amino]ethoxy]ethoxy]acetyl]amino]ethoxy]ethoxy]acetyl]amino]butanoyl]amino]butanoyl]-[Aib2,Leu10,Glu15,Arg20,Glu21,Leu27,Lys28]-Glucagon amide] (H-H[Aib]QGTFTSDLSKYLESRRAREFVQWLLK([γGlu-γGlu-AEEA-AEEA-γGlu-C18 diacid])T-NH2; N-terminus assumed): the EC50 amounted to 22.1 pM.
Regarding `CC(C)C[C@H](NC(=O)[C@H](Cc1ccc(O)cc1)NC(=O)[C@H](CCCCN)NC(=O)[C@H](CO)NC(=O)[C@H](CC(C)C)NC(=O)[C@H](CC(=O)O)NC(=O)[C@H](CO)NC(=O)[C@@H](NC(=O)[C@H](Cc1ccccc1)NC(=O)[C@@H](NC(=O)CNC(=O)[C@H](Cc1c[nH]cn1)NC(=O)C(C)(C)NC(=O)[C@@H](N)Cc1c[nH]cn1)[C@@H](C)O)[C@@H](C)O)C(=O)N[C@@H](CCC(=O)O)C(=O)N[C@@H](CO)C(=O)N[C@@H](CCCCN)C(=O)N[C@@H](CCCNC(=N)N)C(=O)N[C@@H](C)C(=O)N[C@@H](CCCNC(=N)N)C(=O)N[C@@H](CCC(=O)O)C(=O)N[C@@H](Cc1ccccc1)C(=O)N[C@H](C(=O)N[C@@H](CCC(N)=O)C(=O)N[C@@H](Cc1c[nH]c2ccccc12)C(=O)N[C@@H](CC(C)C)C(=O)N[C@@H](CC(C)C)C(=O)N[C@@H](CCCCNC(=O)CC[C@H](NC(=O)CC[C@H](NC(=O)COCCOCCNC(=O)COCCOCCNC(=O)CC[C@H](NC(=O)CCCCCCCCCCCCCCCCC(=O)O)C(=O)O)C(=O)O)C(=O)O)C(=O)N[C@H](C(N)=O)[C@@H](C)O)C(C)C` [Example 27, N^ε28-[(4S)-4-carboxy-4-[[(4S)-4-carboxy-4-[[2-[2-[2-[[2-[2-[2-[[(4S)-4-carboxy-4-(17-carboxyheptadecanoylamino)butanoyl]amino]ethoxy]ethoxy]acetyl]amino]ethoxy]ethoxy]acetyl]amino]butanoyl]amino]butanoyl]-[Aib2,His3,Leu10,Glu15,Lys17,Arg20,Glu21,Leu27, Lys28]-Glucagon amide] (H-H[Aib]HGTFTSDLSKYLESKRAREFVQWLLK([γGlu-γGlu-AEEA-AEEA-γGlu-C18 diacid])T-NH2; N-terminus assumed), the EC50 was 4.1 pM.
Next, `CC(C)C[C@H](NC(=O)[C@H](Cc1ccc(O)cc1)NC(=O)[C@H](CCCCN)NC(=O)[C@H](CO)NC(=O)[C@H](CC(C)C)NC(=O)[C@H](CC(=O)O)NC(=O)[C@H](CO)NC(=O)[C@@H](NC(=O)[C@H](Cc1ccccc1)NC(=O)[C@@H](NC(=O)CNC(=O)[C@H](Cc1c[nH]cn1)NC(=O)C(C)(C)NC(=O)[C@@H](N)Cc1c[nH]cn1)[C@@H](C)O)[C@@H](C)O)C(=O)N[C@@H](CCC(=O)O)C(=O)N[C@@H](CO)C(=O)N[C@@H](CCCCN)C(=O)N[C@@H](CCCNC(=N)N)C(=O)N[C@@H](C)C(=O)N[C@@H](CCCNC(=N)N)C(=O)N[C@@H](CCC(=O)O)C(=O)N[C@@H](Cc1ccccc1)C(=O)N[C@H](C(=O)N[C@@H](CCC(N)=O)C(=O)N[C@@H](Cc1c[nH]c2ccccc12)C(=O)N[C@@H](CC(C)C)C(=O)N[C@@H](CC(C)C)C(=O)N[C@@H](CCCCNC(=O)CC[C@H](NC(=O)CC[C@H](NC(=O)CC[C@H](NC(=O)CCCCCCCCCCCCCCCCC(=O)O)C(=O)O)C(=O)O)C(=O)O)C(=O)N[C@H](C(N)=O)[C@@H](C)O)C(C)C` [Example 34, N^ε28-[(4S)-4-carboxy-4-[[(4S)-4-carboxy-4-[[(4S)-4-carboxy-4-(17-carboxyheptadecanoylamino)butanoyl]amino]butanoyl]amino]butanoyl]-[Aib2,His3,Leu10,Glu15,Lys17,Arg20,Glu21,Leu27,Lys28]-Glucagon amide] (H-H[Aib]HGTFTSDLSKYLESKRAREFVQWLLK([γGlu-γGlu-γGlu-C18 diacid])T-NH2; N-terminus assumed): 14.7 pM.
The same measure for `CC(C)C[C@H](NC(=O)[C@H](Cc1ccc(O)cc1)NC(=O)[C@H](CCCCN)NC(=O)[C@H](CO)NC(=O)[C@H](CC(C)C)NC(=O)[C@H](CC(=O)O)NC(=O)[C@H](CO)NC(=O)[C@@H](NC(=O)[C@H](Cc1ccccc1)NC(=O)[C@@H](NC(=O)CNC(=O)[C@H](Cc1c[nH]cn1)NC(=O)C1(NC(=O)[C@@H](N)Cc2c[nH]cn2)CCC1)[C@@H](C)O)[C@@H](C)O)C(=O)N[C@@H](CCC(=O)O)C(=O)N[C@@H](CO)C(=O)N[C@@H](CCCNC(=N)N)C(=O)N[C@@H](CCCNC(=N)N)C(=O)N[C@@H](C)C(=O)N[C@@H](CCC(N)=O)C(=O)N[C@@H](CC(=O)O)C(=O)N[C@@H](Cc1ccccc1)C(=O)N[C@H](C(=O)N[C@@H](CCC(N)=O)C(=O)N[C@@H](Cc1c[nH]c2ccccc12)C(=O)N[C@@H](CC(C)C)C(=O)N[C@@H](CC(C)C)C(=O)N[C@@H](CCCCNC(=O)CNC(=O)[C@H](CO)NC(=O)[C@H](CCC(=O)O)NC(=O)CNC(=O)[C@H](CO)NC(=O)CC[C@H](NC(=O)CC[C@H](NC(=O)CCCCCCCCCCCCCCCCC(=O)O)C(=O)O)C(=O)O)C(=O)N[C@H](C(N)=O)[C@@H](C)O)C(C)C` [Example 35, N^ε28-[2-[[(2S)-2-[[(2S)-4-carboxy-2-[[2-[[(2S)-2-[[(4S)-4-carboxy-4-[[(4S)-4-carboxy-4-(17-carboxyheptadecanoylamino)butanoyl]amino]butanoyl]amino]-3-hydroxypropanoyl]amino]acetyl]amino]butanoyl]amino]-3-hydroxypropanoyl]amino]acetyl]-[Acb2,His3,Leu10,Glu15, Leu27,Lys28]-Glucagon amide] (I: H-H[Ac4c]HGTFTSDLSKYLESRRAQDFVQWLLKT-NH2 / II: {C18 diacid-γGlu-γGlu}-SGESG; amide I:28-II:C; N-terminus assumed): 3 pM.
